Assays:
Plasmodium berghei = system: Plasmodium berghei; set-up: method as in PMID 11428929, PMID 17273878, PMID 12723958; conditions: cited from earlier work
[1] = system: HCV-RNA replication in ORL8 cells; assay: Comparative time course RL assay in ORL8 cells; format: cell-based, hepatitis C virus
Procedure: We next performed a time course assay (2 to 72 hrs after treatment) in the case of ORL8 cells treated with N-89 (0.1 µM or 1 µM) or IFN-α (1 IU/ml; corresponding to approximately EC80). ORL8 cells treated with IFN-α (1 IU/ml) and N-89 (1 µM) had almost the same anti-HCV kinetics over the first […] after treatment (upper panel of Fig. 4); however, within the first 12 hrs after treatment N-89-treated ORL8 cells had more rapid anti-HCV kinetics than did the IFN-α-treated cells (lower panel of Fig. 4).
Figure 4 The anti-HCV action of N-89 was faster than that of IFN-α. The ORL8 cells were treated with N-89 or IFN-α, and then RL assays were performed at 2 to 72 hrs after the treatment. The relative value (%) calculated at each time point, when the luciferase activity of non-treated cells at 24 hrs was assigned as 100%, is shown. Data are expressed as the means±standard deviation of triplicate assays. […] To evaluate this possibility, we examined the effect of VE on N-89 at the EC90 level in the ORL8 assay. […] Similar results were obtained by using N-251 (Fig. 5C and D). […] However, an antimalarial drug, artemisinin, was hardly influenced by co-treatment with VE (Fig. 5E). The value (1.9) of artemisinin was almost the same as that (3.5 or 2.5) of IFN-α or the control, respectively (Fig. 5F).

rats = system: rats; set-up: method as in PMID 11428929, PMID 17273878, PMID 12723958; conditions: cited from earlier work
Plasmodium falciparum = system: Plasmodium falciparum; set-up: method as in PMID 11428929, PMID 17273878, PMID 12723958; conditions: cited from earlier work
mice = system: mice; set-up: method as in PMID 11428929, PMID 17273878, PMID 12723958; conditions: cited from earlier work
HCV-RNA in ORL8 cells = assay: Curing of ORL8 cells by N-89 treatment (G418 selection, Western blot); format: cell-based, hepatitis C virus; conditions: 1 µM, 3 weeks, addition at 4-day intervals, absence of G418
Procedure: To date, IFN-α alone or IFN-γ alone has generally been used to prepare cured cells from the cells harboring HCV-RNA [36]. Since we observed strong anti-HCV activity (>99% suppression) at 8 µM of N-89 in OR6 cells or 1 µM of N-89 in ORL8 cells without a decrease in cell viability (Fig. 1B), we expected that these cells might be cured only by treatment with N-89. Accordingly, OR6 and ORL8 cells were treated with 8 µM and 1 µM of N-89, respectively, in the absence of G418. The treatment was continued for 3 weeks with the addition of N-89 at 4-day intervals.
Figure 3 OR6 and ORL8 cells were cured by treatment with only N-89. The treated cells were divided into two plates with or without G418, and then cultured for 2 weeks. The left panels show the cells stained with Coomassie brilliant blue. The right panels show the results of Western blot analysis of the treated and non-treated cells for HCV proteins. Western blot analysis was performed as described in Fig. 1B.

malaria parasites = system: malaria parasites; set-up: method as in PMID 21501696, PMID 21924377; conditions: compared with N-89; cited from earlier work
RSc-JRN/35B cells = assay: Viability of RSc-JRN/35B cells (WST-1, trypan blue cell counting); format: cell-based, human; conditions: 10 µM
Procedure: (§1) The WST-1 cell proliferation assay was performed as described previously. Briefly, The cells were plated onto 96-well plates (1×10^3 cells per well) in triplicate and then treated with each reagent at several concentrations for 72 hrs. After treatment, the cells were subjected to the WST-1 cell proliferation assay (Takara Bio, Otsu, Japan) according to the manufacturer’s protocol. This assay is based on the enzymatic cleavage of the tetrazolium salt WST-1 to formazan by cellular mitochondrial dehydrogenases present in viable cells. Therefore, there are […] the value of the WST-1 assay becomes zero. The experiments were performed at least in triplicate. From the assay results, the 50% cytotoxic concentration (CC50) of each reagent was determined.
(§2) We next examined whether N-89 and N-251 worked in an HCV production system using HCV-JFH-1 strain (genotype 2a). […] To clarify whether anti-HCV activity depends on the difference of genotype or assay model, we evaluated the activities of N-89 and N-251 using RSc-JRN/35B [Ikeda et al., submitted] cells harboring a subgenomic HCV-JFH-1 replicon as an additional assay.

[2] = as above; format: cell-based, human; conditions: human, read-out: viable cells by cell counting after trypan blue dye treatment
Procedure: as §1, §2

SMILES | antimalarial activity in vivo (Plasmodium berghei) | time after treatment at which RL activity was significantly decreased ([1]; 0.1 µM) [h] | time after treatment at which RL activity was significantly decreased ([1]; 1 µM) [h] | 50% lethal dose (rats) [mg/kg] | antimalarial activity in vitro (Plasmodium falciparum) | 50% lethal dose (mice) [mg/kg] | curing of HCV-RNA-replicating cells (HCV-RNA in ORL8 cells) | potency against malaria parasites (malaria parasites) | relative value of WST-1 (RSc-JRN/35B cells) | viability at 10 µM [2] [%]
C1CCCCCC2(CCCCC1)OOCCCOO2 [N-89, 1,2,6,7-Tetraoxaspiro[7.11]nonadecane] | potent antimalarial activity | 9 | 6 | > 2000 | potent antimalarial activity | > 2000 | cured | – | – | –
OCCCCCCC1COOC2(CCCCCCCCCCC2)OOC1 [N-251, 6-(1,2,6,7-tetraoxaspiro[7.11]nonadec-4-yl)hexan-1-ol] | – | – | – | – | – | – | – | as potent as N-89 | almost became zero | ~30
